Data as given in patent US5476944A, “Derivatives of cyclic phenolic thioethers” (G. D. Searle & Co., priority 1994, dated 1995).

Biological target: T1, cellular COX-II (Homo sapiens, UniProt P35354)
T1 construct: stimulated human fetal dermal fibroblasts (HFDF, derived from primary cell cultures); endogenous in cells; host or cells: human fetal dermal fibroblasts (HFDF), primary, stimulated with IL-1 beta
T1 sequence (P35354 18-604): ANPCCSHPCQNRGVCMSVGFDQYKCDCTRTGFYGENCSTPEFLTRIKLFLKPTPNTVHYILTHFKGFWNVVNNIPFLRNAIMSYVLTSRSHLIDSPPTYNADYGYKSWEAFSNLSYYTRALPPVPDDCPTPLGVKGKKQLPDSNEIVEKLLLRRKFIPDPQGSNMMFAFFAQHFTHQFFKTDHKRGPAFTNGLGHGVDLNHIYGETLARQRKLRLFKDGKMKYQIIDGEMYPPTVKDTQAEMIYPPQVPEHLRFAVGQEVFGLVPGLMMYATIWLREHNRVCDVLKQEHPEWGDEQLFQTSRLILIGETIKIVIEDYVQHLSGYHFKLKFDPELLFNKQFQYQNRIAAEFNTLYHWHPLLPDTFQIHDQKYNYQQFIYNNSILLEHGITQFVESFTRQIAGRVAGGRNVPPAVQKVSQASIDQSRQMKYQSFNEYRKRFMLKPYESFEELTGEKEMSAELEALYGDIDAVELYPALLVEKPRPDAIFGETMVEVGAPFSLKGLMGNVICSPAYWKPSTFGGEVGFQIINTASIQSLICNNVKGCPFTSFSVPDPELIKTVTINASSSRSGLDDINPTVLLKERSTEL
Test: Cellular COX-II Assay (Cell Fibroblast Assay), IL-1 stimulated human fetal dermal fibroblasts, PGE2
Format: cell-based
Settings: IL-1 beta stimulated human fetal dermal fibroblasts
Experimental: The compounds of the invention are evaluated with respect to the inhibition of cellular COX-II in vitro according to the following Cellular COX-II Assay (Cell Fibroblast Assay).
Cellular COX-II Assay (Cell Fibroblast Assay)
Inhibition of cellular COX-II by test compounds is determined using stimulated human fetal dermal fibroblasts (HFDF, derived from primary cell cultures). Fibroblasts are cultured in microtiter wells at 1.5×10^4 cells/well in Dulbecco's Modified Eagle's Media (DMEM)(Gibco/BRL, Gaithersburg, Md. Sigma Chemical Co., St. Louis, Mo.) containing 4500 mg glucose/L, 100 units penicillin G/ml and 0.1 mg streptomycin/ml, 4 mM L-glutamine, 25 mM Hepes and 10% Fetal Bovine Serum (Gibco/BRL, Gaithersburg, Md. Bioproducts For Science, Inc., Indianapolis,Ind.). Following a 3-day incubation at 37° C., the culture media is removed by aspiration using low vacuum, and the cells are stimulated overnight with medium containing human recombinant IL-1 (interleukin-1) beta (1 ng/ml)(Cistron, Pine Brook, N.J.). The next day, the fibroblasts are washed with Phosphate Buffered Saline, and 185 μl of DMEM is added to each well. The cells are placed in a 37° C. incubator for 15 minutes. Compounds are then added to the cells using seven half-log dilutions in duplicate determinations. Cells are incubated with test compounds at 37° C. for 30 minutes. The COX-II substrate arachidonic acid (20 μM; Nu-Chek-Prep Inc., Elysian, Minn.) is then added to the cell cultures and the plates are incubated for 10 minutes at 37° C. Supernatants are collected and Prostaglandin E2 (PGE2) production is measured by an enzyme-linked immunosorbent assay (ELISA; antibodies produced by Cayman Chemical Company, Ann Arbor, Mich.). […] PG,60
The following is a description of how the activities of the compounds of the present invention may be determined.
A run of this assay consists of one (or more) plates, each containing, along with the standard (in row A), (1) two wells of unstimulated material (in col. 12), (2) five wells of stimulated material (in col. 12), (3) seven wells (one per concentration) for indomethacin (in col. 11), and (4) two wells at each of seven concentrations for five test compounds, one of which is a repeat of indomethacin. The response (ng/ml Eicosanoid) is estimated from the Standard curve and is highest at low concentrations and decreases as the concentration increases. If the response is plotted on the y-axis and the log of the concentration is plotted on the x-axis, the dose-response pattern for these assays is typically a symmetrical, sigmoidal shaped curve. If a full range of concentrations is used, the complete sigmoidal curve may be seen, starting with an upper asymptote, falling at some degree of steepness, and then leveling off at a lower asymptote. The IC50 is defined as the concentration corresponding to a response midway between the upper and lower plateaus. A theoretic "dose-response" model is used to estimate the IC50.
The procedure described below was used to define the minimum and maximum responses for the compounds on a plate.
The procedure uses information for indomethacin and the rest of the plate in defining the minimum and maximum response. The justification for doing this is as follows. Enough runs have been done with indomethacin to determine and use a range of concentrations such that the response to the lowest concentrations is on the upper plateau of the sigmoidal curve and the response to the highest concentrations is on the lower plateau of the sigmoidal curve. For the other compounds, if a response is measured which is less than the response for the unstimulated wells, then this response may be considered to be another estimate of a minimal response. Likewise, if a response is measured which is greater than the response for the stimulated wells, then this response may be considered to be another estimate of a maximal response. Based on this reasoning, the minimum is estimated as follows: […]

IC50: 370 nM
SMILES: CC(C)(C)c1cc(S[C@H]2CCCC[C@H]2OCC(=O)O)cc(C(C)(C)C)c1 (racemic) [Example 72, (±)cis-2-[[2-[[3,5-bis(1,1-dimethylethyl)phenyl]thio]cyclohexyl]oxy]acetic acid]
